The values that follow come from patent US20090082438A1, “Coordination Compound Composed of Diaminocyclohexane Platinum (II) and Block Copolymer and Anti-Cancer Agent Comprising the Same” (priority 2005, published 2009).

For series [1], the system named is mouse colon cancer Colon-26 cell line. The experiment in a line: Treating Test Example 2: anti-tumor and life-prolongation effect, i.v. administration to Colon-26-transplanted CDF1 mice. The series is classed as in vivo.
Series [2] is described as follows: Treating Test Example 2: toxicity (body weight change, deaths) in treated CDF1 mice. The settings on record: 10 mg/kg. The source says: In this experiment, the treatment was started on the 9th day after the tumor transplantation.

Counter-ions that a name gives are not always drawn.

For `O=C1[O][Pt-2]2([NH2+]C3CCCC[C@H]3[NH2+]2)[O]C1=O` (stereo partly shown) [oxaliplatin, oxalate (1,2-diaminocyclohexane)platinum (II)], the “life-prolonging effect (survival)” value in series [1] (doses 2, 4 or 6 mg/kg oxaliplatin) is “little life-prolonging effect”. Besides, the “remarkable tumor growth-inhibiting effect” value in series [1] (oxaliplatin up to 10 mg/kg, every third day, three times) is “not observed”. Also, in series [2], the “body weight reduction to” value turned out to be 80% and the “deaths compared with untreated group (survival number)” value was “earlier deaths than the untreated group”.
